{
  "source": "patent US10597380B2",
  "about": "“Pyridazinone-based broad spectrum anti-influenza inhibitors” (Hoffmann-La Roche Inc., priority 2017, dated 2020)",
  "note": "pIC50: −log10 of the molar value.",
  "data": [
    {"system": "Influenza A/WSN/33-Luciferase virus", "assay": "microbe, parasite or virus in culture", "assay_type": "cell-based", "details": "A549, 72 h, luciferase signal three days later, read-out: IC50 antiviral activity (Luciferase reporter assay)", "values": [
      {"compound": "Cn1cccc(Nc2nn(-c3ccc(OC(F)(F)F)cc3)c(=O)c3ccccc23)c1=O", "note": "[Example 1, 4-[(1-methyl-2-oxo-3-pyridyl)amino]-2-[4-(trifluoromethoxy)phenyl]phthalazin-1-one]", "pIC50": 7.66},
      {"compound": "O=c1[nH]cccc1Nc1nn(-c2ccc(OC(F)(F)F)cc2)c(=O)c2ccccc12", "note": "[Example 2, 4-[(2-oxo-1H-pyridin-3-yl)amino]-2-[4-(trifluoromethoxy)phenyl]phthalazin-1-one]", "pIC50": 7.27},
      {"compound": "COC(=O)Cn1cccc(Nc2nn(-c3ccc(OC(F)(F)F)cc3)c(=O)c3ccccc23)c1=O", "note": "[Example 3, methyl 2-[2-oxo-3-[[4-oxo-3-[4-(trifluoromethoxy)phenyl]phthalazin-1-yl]amino]-1-pyridyl]acetate]", "pIC50": 7.42},
      {"compound": "COC(=O)C(C)(C)Cn1cccc(Nc2nn(-c3ccc(OC(F)(F)F)cc3)c(=O)c3ccccc23)c1=O", "note": "[Example 4, methyl 2,2-dimethyl-3-[2-oxo-3-[[4-oxo-3-[4-(trifluoromethoxy)phenyl]phthalazin-1-yl]amino]-1-pyridyl]propanoate]", "pIC50": 6.31},
      {"compound": "CCOC(=O)COCCn1cccc(Nc2nn(-c3ccc(OC(F)(F)F)cc3)c(=O)c3ccccc23)c1=O", "note": "[Example 5, ethyl 2-[2-[2-oxo-3-[[4-oxo-3-[4-(trifluoromethoxy)phenyl]phthalazin-1-yl]amino]-1-pyridyl]ethoxy]acetate]", "pIC50": 6.31},
      {"compound": "COC(=O)[C@H]1CCCN1CCn1cccc(Nc2nn(-c3ccc(OC(F)(F)F)cc3)c(=O)c3ccccc23)c1=O", "note": "[Example 6, methyl (2R)-1-[2-[2-oxo-3-[[4-oxo-3-[4-(trifluoromethoxy)phenyl]phthalazin-1-yl]amino]-1-pyridyl]ethyl]pyrrolidine-2-carboxylate]", "pIC50": 7.28},
      {"compound": "Cc1cc(OC(F)(F)F)ccc1-n1nc(Nc2cccn(C)c2=O)c2ccccc2c1=O", "note": "[Example 7, 4-[(1-methyl-2-oxo-3-pyridyl)amino]-2-[2-methyl-4-(trifluoromethoxy)phenyl]phthalazin-1-one]", "pIC50": 5.36},
      {"compound": "Cn1cccc(Nc2nn(-c3ccc(C(C)(C)C)nc3)c(=O)c3ccccc23)c1=O", "note": "[Example 8, 2-(6-tert-butyl-3-pyridyl)-4-[(1-methyl-2-oxo-3-pyridyl)amino]phthalazin-1-one]", "pIC50": 7.14},
      {"compound": "Cn1cccc(Nc2nn(-c3cnc(C(C)(C)C)nc3)c(=O)c3ccccc23)c1=O", "note": "[Example 9, 2-(2-tert-butylpyrimidin-5-yl)-4-[(1-methyl-2-oxo-3-pyridyl)amino]phthalazin-1-one]", "pIC50": 6.56},
      {"compound": "Cn1cccc(Nc2nn(-c3ccc(C4(C)COC4)cc3)c(=O)c3ccccc23)c1=O", "note": "[Example 10, 2-[4-(3-methyloxetan-3-yl)phenyl]-4-[(1-methyl-2-oxo-3-pyridyl)amino]phthalazin-1-one]", "pIC50": 6.59},
      {"compound": "Cn1cccc(Nc2nn(-c3ccc(C4COC4)cc3)c(=O)c3ccccc23)c1=O", "note": "[Example 11, 4-[(1-methyl-2-oxo-3-pyridyl)amino]-2-[4-(oxetan-3-yl)phenyl]phthalazin-1-one]", "pIC50": 5.70},
      {"compound": "Cn1cccc(Nc2nn(-c3ccc(C4CC4)cc3)c(=O)c3ccccc23)c1=O", "note": "[Example 12, 2-(4-cyclopropylphenyl)-4-[(1-methyl-2-oxo-3-pyridyl)amino]phthalazin-1-one]", "pIC50": 6.39},
      {"compound": "COCCOc1ccc(-n2nc(Nc3cccn(C)c3=O)c3ccccc3c2=O)cc1", "note": "[Example 13, 2-[4-(2-methoxyethoxy)phenyl]-4-[(1-methyl-2-oxo-3-pyridyl)amino]phthalazin-1-one]", "pIC50": 5.82},
      {"compound": "Cn1cccc(Nc2nn(-c3ccc(C(C)(C)C)cc3)c(=O)c3ccccc23)c1=O", "note": "[Example 14, 2-(4-tert-butylphenyl)-4-[(1-methyl-2-oxo-3-pyridyl)amino]phthalazin-1-one]", "pIC50": 6.96},
      {"compound": "CC(C)(C)c1ccc(-n2nc(Nc3ccc[nH]c3=O)c3ccccc3c2=O)cc1", "note": "[Example 15, 2-(4-tert-butylphenyl)-4-[(2-oxo-1H-pyridin-3-yl)amino]phthalazin-1-one]", "pIC50": 6.88},
      {"compound": "COc1ccc2c(Nc3cccn(C)c3=O)nn(-c3ccc(OC(F)(F)F)cc3)c(=O)c2c1", "note": "[Example 16, 7-methoxy-4-[(1-methyl-2-oxo-3-pyridyl)amino]-2-[4-(trifluoromethoxy)phenyl]phthalazin-1-one]", "pIC50": 7.92},
      {"compound": "Cn1cccc(Nc2nn(-c3ccc(OC(F)(F)F)cc3)c(=O)c3c(F)cccc23)c1=O", "note": "[Example 17, 8-fluoro-4-[(1-methyl-2-oxo-3-pyridyl)amino]-2-[4-(trifluoromethoxy)phenyl]phthalazin-1-one]", "pIC50": 7.00},
      {"compound": "Cn1cccc(Nc2nn(-c3ccc(OC(F)(F)F)cc3)c(=O)c3cccc(F)c23)c1=O", "note": "[Example 18, 5-fluoro-4-[(1-methyl-2-oxo-3-pyridyl)amino]-2-[4-(trifluoromethoxy)phenyl]phthalazin-1-one]", "pIC50": 6.91},
      {"compound": "COc1cccc2c(=O)n(-c3ccc(OC(F)(F)F)cc3)nc(Nc3cccn(C)c3=O)c12", "note": "[Example 19, 5-methoxy-4-[(1-methyl-2-oxo-3-pyridyl)amino]-2-[4-(trifluoromethoxy)phenyl]phthalazin-1-one]", "pIC50": 4.23},
      {"compound": "CCc1ccc2c(Nc3cccn(C)c3=O)nn(-c3ccc(C(C)(C)C)cc3)c(=O)c2c1", "note": "[Example 20, 2-(4-tert-butylphenyl)-7-ethyl-4-[(1-methyl-2-oxo-3-pyridyl)amino]phthalazin-1-one]", "pIC50": 8.40},
      {"compound": "Cn1cccc(Nc2nn(-c3ccc(OC(F)(F)F)cc3)c(=O)c3c2CCCC3)c1=O", "note": "[Example 21, 4-[(1-methyl-2-oxo-3-pyridyl)amino]-2-[4-(trifluoromethoxy)phenyl]-5,6,7,8-tetrahydrophthalazin-1-one]", "pIC50": 8.30},
      {"compound": "Cn1cncc(Nc2nn(-c3ccc(OC(F)(F)F)cc3)c(=O)c3c2CCCC3)c1=O", "note": "[Example 22, 4-[(1-methyl-6-oxo-pyrimidin-5-yl)amino]-2-[4-(trifluoromethoxy)phenyl]-5,6,7,8-tetrahydrophthalazin-1-one]", "pIC50": 7.80},
      {"compound": "COC(=O)c1cc(Nc2nn(-c3ccc(OC(F)(F)F)cc3)c(=O)c3c2CCCC3)c(=O)n(C)c1", "note": "[Example 23, methyl 1-methyl-6-oxo-5-[[4-oxo-3-[4-(trifluoromethoxy)phenyl]-5,6,7,8-tetrahydrophthalazin-1-yl]amino]pyridine-3-carboxylate]", "pIC50": 6.15},
      {"compound": "COC(=O)Cn1cccc(Nc2nn(-c3ccc(OC(F)(F)F)cc3)c(=O)c3c2CCCC3)c1=O", "note": "[Example 24, methyl 2-[2-oxo-3-[[4-oxo-3-[4-(trifluoromethoxy)phenyl]-5,6,7,8-tetrahydrophthalazin-1-yl]amino]-1-pyridyl]acetate]", "pIC50": 7.66},
      {"compound": "CN(C)CCn1cncc(Nc2nn(-c3ccc(OC(F)(F)F)cc3)c(=O)c3c2CCCC3)c1=O", "note": "[Example 25, 4-[[1-[2-(dimethylamino)ethyl]-6-oxo-pyrimidin-5-yl]amino]-2-[4-(trifluoromethoxy)phenyl]-5,6,7,8-tetrahydrophthalazin-1-one]", "pIC50": 7.85},
      {"compound": "Cn1cccc(Nc2nn(-c3ccc(C(C)(C)C)nc3)c(=O)c3c2CCCC3)c1=O", "note": "[Example 26, 2-(6-tert-butyl-3-pyridyl)-4-[(1-methyl-2-oxo-3-pyridyl)amino]-5,6,7,8-tetrahydrophthalazin-1-one]", "pIC50": 7.60},
      {"compound": "Cn1cccc(Nc2nn(-c3ccc(OC(F)F)cc3)c(=O)c3c2CCCC3)c1=O", "note": "[Example 27, 2-[4-(difluoromethoxy)phenyl]-4-[(1-methyl-2-oxo-3-pyridyl)amino]-5,6,7,8-tetrahydrophthalazin-1-one]", "pIC50": 7.39}
    ]}
  ]
}
